Data taken from ChEMBL document CHEMBL3351690, “Design, synthesis and structure--activity relationship (SAR) studies of imidazo[4,5-b]pyridine derived purine isosteres and their potential as cytotoxic agents” (Eur J Med Chem, 2015).

What was measured:
MDA-MB-231 [1] = experiment: Cytotoxicity against paclitaxel-resistant human MDA-MB-231 cells after 24 hrs by MTT assay; format: functional, cell-based; settings: MDA-MB-231, 24 h
[2] = Stability in mouse liver microsomes at 1 uM pre-incubated for 5 mins in presence of NADPH and measured after 45 mins by LC/MS method; format: ADME; settings: read-out: Stability
[3] = Stability in human liver microsomes at 1 uM pre-incubated for 5 mins in presence of NADPH and measured after 45 mins by LC/MS method; format: ADME; settings: read-out: Stability
MDA-MB-231 [4] = experiment: Inhibition of cell proliferation of paclitaxel-resistant human MDA-MB-231 cells at 10 uM after 24 hrs by MTT assay; format: functional; settings: MDA-MB-231, 24 h
[5] = Cytotoxicity against human MES-SA/Dx5 cells after 24 hrs by MTT assay; format: functional, cell-based; settings: MES-SA/Dx5, 24 h
[6] = Cytotoxicity against human MDA435 cells after 24 hrs by MTT assay; format: functional, cell-based; settings: MDA-MB-435, 24 h
[7] = Cytotoxicity against human HL60 cells after 24 hrs by MTT assay; format: functional, cell-based; settings: HL-60, 24 h
[8] = Cytotoxicity against human MES-SA cells after 24 hrs by MTT assay; format: functional, cell-based

| SMILES | IC50 (MDA-MB-231 [1]) | other results |
| --- | --- | --- |
| c1ccc(-c2nc3cccnc3n2C2CCCC2)cc1 | 3000 nM | – |
| c1ccc(-c2nc3ncccc3n2C2CCCC2)cc1 | 7000 nM | – |
| Cn1c(-c2ccccc2)nc2cccnc21 | 4100 nM | – |
| Fc1ccc(-c2nc3cccnc3n2C2CCCC2)cc1 | 500 nM | – |
| Fc1cc(F)cc(-c2nc3cccnc3n2C2CCCC2)c1 | 138 nM | – |
| Fc1cc(F)cc(-c2nc3ncccc3n2C2CCCCC2)c1 | 3800 nM | – |
| Cn1c(-c2cc(F)cc(F)c2)nc2ncccc21 | 2700 nM | – |
| FC(F)(F)c1cc(-c2nc3cccnc3n2C2CCCC2)cc(C(F)(F)F)c1 | 112 nM | – |
| FC(F)(F)Oc1cccc(-c2nc3cccnc3n2C2CCCC2)c1 | 262 nM | – |
| Fc1cccc(-c2nc3cccnc3n2C2CCCCC2)c1 | 342 nM | – |
| Cc1ccc(-c2nc3cccnc3n2C2CCCCC2)cc1 | 7000 nM | – |
| CCS(=O)(=O)c1cccc(-c2nc3cccnc3n2C2CCCCC2)c1 | 164 nM | – |
| Cc1cccc(-c2nc3cccnc3n2C2CCCC2)c1Cl | 646 nM | – |
| CN(C)c1cccc(-c2nc3cccnc3n2C2CCCC2)c1 | 455 nM | – |
| N#Cc1ccc(-c2nc3cccnc3n2C2CCCC2)cc1F | 2000 nM | – |
| COc1ccc(-c2nc3cccnc3n2C2CCCCC2)cc1 | 112 nM | – |
| c1ccc(Oc2ccc(-c3nc4cccnc4n3C3CCCC3)cc2)cc1 | > 10000 nM | – |
| O=C(O)c1ccc(-c2nc3cccnc3n2C2CCCC2)cc1 | 600 nM | remaining at 0.75 h, 1 µM [2]: 80%; remaining at 0.75 h, 1 µM [3]: 80% |
| COC(=O)c1ccc(-c2nc3cccnc3n2C2CCCC2)cc1 | 350 nM | inhibition at 10 µM (MDA-MB-231 [4]): 25%; remaining at 0.75 h, 1 µM [2]: 52%; remaining at 0.75 h, 1 µM [3]: 52% |

| SMILES | IC50 (MDA-MB-231 [1]) | other results |
| --- | --- | --- |
| O=C(NC1CC1)c1ccc(-c2nc3cccnc3n2C2CCCC2)cc1 | 115 nM | inhibition at 10 µM (MDA-MB-231 [4]): 42%; remaining at 0.75 h, 1 µM [2]: 42%; remaining at 0.75 h, 1 µM [3]: 42% |
| CCNC(=O)c1ccc(-c2nc3cccnc3n2C2CCCC2)cc1 | 320 nM | – |
| O=C(NCc1ccccc1)c1ccc(-c2nc3cccnc3n2C2CCCC2)cc1 | 620 nM | – |
| NC(=O)c1ccc(-c2nc3cccnc3n2C2CCCC2)cc1 | 8000 nM | – |
| CN(C)C(=O)c1ccc(-c2nc3cccnc3n2C2CCCC2)cc1 | 520 nM | – |
| c1cnc2c(c1)nc(-c1cncnc1)n2C1CCCC1 | > 10000 nM | – |
| Cc1nnc(-c2ccc(-c3nc4cccnc4n3C3CCCC3)cc2)o1 | 21 nM | IC50 [5]: 80 nM; IC50 [6]: 28 nM; inhibition at 10 µM (MDA-MB-231 [4]): 77.3%; remaining at 0.75 h, 1 µM [2]: 75%; IC50 [7]: 70 nM; remaining at 0.75 h, 1 µM [3]: 75%; IC50 [8]: 25 nM |
| CN(C)c1ncc(-c2nc3cccnc3n2C2CCCC2)cn1 | 45 nM | – |
| Cc1ccsc1-c1nc2cccnc2n1C1CCCC1 | 138 nM | – |
| COc1ncc(-c2nc3cccnc3n2C2CCCC2)c(OC)n1 | > 10000 nM | – |
| c1ccc(Cn2nccc2-c2nc3cccnc3n2C2CCCC2)cc1 | 348 nM | – |
| Cc1cc(-c2nc3cccnc3n2C2CCCC2)cnc1F | 70 nM | – |
| COc1ccc(-c2nc3cccnc3n2C2CCCC2)cn1 | 219 nM | – |
| c1cnc2c(c1)nc(-c1ccc3c(c1)OCC3)n2C1CCCC1 | 513 nM | – |
| Cn1ccc2cc(-c3nc4cccnc4n3C3CCCC3)ccc21 | 90 nM | – |
| c1cnc2c(c1)nc(-c1ccc(-c3nnn[nH]3)cc1)n2C1CCCC1 | 765 nM | – |
| c1cncc(-c2ccc(-c3nc4cccnc4n3C3CCCC3)cc2)c1 | > 10000 nM | – |
| c1cnc2c(c1)nc(-c1ccc(-c3nnco3)cc1)n2C1CCCC1 | 87 nM | – |
| CC(=O)O[C@H]1C(=O)[C@@]2(C)[C@H]([C@H](OC(=O)c3ccccc3)[C@]3(O)C[C@H](OC(=O)[C@H](O)[C@@H](NC(=O)c4ccccc4)c4ccccc4)C(C)=C1C3(C)C)[C@]1(OC(C)=O)CO[C@@H]1C[C@@H]2O [PACLITAXEL] | 457 nM | IC50 [5]: 5100 nM; IC50 [7]: 7 nM; IC50 [8]: 8 nM |
